Tested on: CHO cell line (GAA LEC clone R3.3) expressing rh-GAA
Test: Phosphorylation efficiency of rh-GAA from cultures containing mannosidase inhibitors ([32P] incorporation by GlcNAc phosphotransferase)
Format: cell-based, Chinese Hamster
Settings: increasing amounts of inhibitor alone vs no mannosidase inhibitors (FIG. 1)
Method: To determine whether mannosidase inhibitors can increase phosphorylation efficiency of recombinant human acid alpha glucosidase (rh-GAA), a CHO cell line (GAA LEC clone R3.3) expressing rh-GAA was grown in various conditions that contained different amounts of the following mannosidase the inhibitors: Kifunensin; Deoxymannojirimycin (DMJ); or combinations of both inhibitors. Conditioned media from each inhibitor condition containing 6 μg of GAA (based on GAA activity assay) was then incubated with purified bovine GlcNAc phosphotransferase (Pt'ase) and [^32P]UDP-GlcNAc. Subsequently, each phosphorylation reaction was loaded onto a concanavalin A-sepharose column to capture glycoproteins, e.g., rh-GAA. The concanavalin A-sepharose was washed and the resin was counted in a liquid scintillation counter to measure the ^32P incorporation, i.e., the extent of phosphorylation on rh-GAA. The results are summarized in Table 1 below and FIGS. 1 and 2.

| SMILES | effect on the phosphorylation reaction of rh-GAA (in words) |
| --- | --- |
| OC[C@H]1NC[C@@H](O)[C@@H](O)[C@@H]1O [DMJ only, deoxymannojirimycin] | greatly enhance the phosphorylation reaction |
| O=C1N[C@@H]2[C@@H](O)[C@@H](O)[C@H](O)[C@@H](CO)N2C1=O [Kifunensin only, kifunensine] | greatly enhance the phosphorylation reaction |

Source: US20030124652A1, “Methods of producing high mannose glycoproteins in complex carbohydrate deficient cells” (NOVAZYME PHARMACEUTICALS, INC., priority 2001, published 2003)
